Assay results as given in PMC8364686, “Safety, tolerability, pharmacokinetics and pharmacodynamics of single oral doses of BI 187004, an inhibitor of 11beta-hydroxysteroid dehydrogenase-1, in healthy male volunteers with overweight or obesity” (Clinical Diabetes and Endocrinology, 2021).
Read-outs that look alike come from different tables or passages of the source.

Experiment: BI 187004 concentration in subcutaneous adipose tissue biopsies (LC–MS/MS)
Assay type: in vivo, human
Details: for Kp at 10 h / Kp at 24 h / concentration at 10 h / concentration at 24 h: male, human, oral; for Kp at 10 h: read-out: AT:plasma ratio (range) 10 h; for Kp at 24 h: read-out: AT:plasma ratio (range) 24 h; for concentration at 10 h: read-out: AT C10 gMean (range); for concentration at 24 h: read-out: AT C24 gMean (range)
Experimental: The assay was qualified for the BI 187004 concentration range of 2.5—10,000 ng/g. The BI 187004 AT concentration data for study samples were generated from seven analytical runs. For each run, the acceptance criteria for the calibration standards and QC samples were met. Acceptance criteria for all sample analysis runs were ≤ 25% RSD (relative standard deviation / precision) and ± 25% RE (relative error / accuracy) for calibration standards and quality control samples.

SMILES: N#Cc1ccc2c(c1)[C@H]1CCCN(C(=O)c3ccc4[nH]cnc4c3)[C@H]1C2 [BI 187004]
- AT:plasma ratio (range) 24 h (10 mg single dose, 24 h, only range printed): – (9.58 – 20.1)
- AT C24 gMean (range) (10 mg single dose, adipose tissue, 24 h, only range printed): – (9.91 – 22.6) nmol/L
- Plasma concentration compared with AT concentration (times higher) (24 h post dosing): approximately 10
- Ratio ATC24/PlasmaC24, range across dose groups (24 h post dosing): 8.58—11.4
- Kp at 10 h (subcutaneous adipose tissue / plasma, 40 mg single dose): 10.1
- Kp at 24 h (subcutaneous adipose tissue / plasma, 40 mg single dose, 24 h): 8.58
- Kp at 10 h (subcutaneous adipose tissue / plasma, 80 mg single dose): 8.36
- Kp at 24 h (subcutaneous adipose tissue / plasma, 80 mg single dose, 24 h): 9.62
- Kp at 10 h (subcutaneous adipose tissue / plasma, 160 mg single dose): 13.7
- Kp at 24 h (subcutaneous adipose tissue / plasma, 160 mg single dose, 24 h): 10.3
- Kp at 24 h (subcutaneous adipose tissue / plasma, 240 mg single dose, 24 h): 9.96
- Kp at 10 h (subcutaneous adipose tissue / plasma, 360 mg single dose): 16.2
- Kp at 24 h (subcutaneous adipose tissue / plasma, 360 mg single dose, 24 h): 11.4
- Kp at 10 h (subcutaneous adipose tissue and plasma, 240 mg single dose): 25.1
- Kp at 10 h (subcutaneous adipose tissue, 10 mg single dose): 10.3
- concentration at 10 h (subcutaneous adipose tissue, 10 mg single dose, adipose tissue): 17.9 nM
- Kp at 10 h (subcutaneous adipose tissue, 20 mg single dose): 9.97
- Kp at 24 h (subcutaneous adipose tissue, 20 mg single dose, 24 h): 10.8
- concentration at 10 h (subcutaneous adipose tissue, 20 mg single dose, adipose tissue): 38.1 nM
- concentration at 24 h (subcutaneous adipose tissue, 20 mg single dose, adipose tissue, 24 h): 17.5 nM
- concentration at 10 h (subcutaneous adipose tissue, 40 mg single dose, adipose tissue): 80.3 nM
- concentration at 24 h (subcutaneous adipose tissue, 40 mg single dose, adipose tissue, 24 h): 27.5 nM
- concentration at 10 h (subcutaneous adipose tissue, 80 mg single dose, adipose tissue): 128 nM
- concentration at 24 h (subcutaneous adipose tissue, 80 mg single dose, adipose tissue, 24 h): 84.5 nM
- concentration at 10 h (subcutaneous adipose tissue, 160 mg single dose, adipose tissue): 412 nM
- concentration at 24 h (subcutaneous adipose tissue, 160 mg single dose, adipose tissue, 24 h): 168 nM
- concentration at 10 h (subcutaneous adipose tissue, 240 mg single dose, adipose tissue): 653 nM
- concentration at 24 h (subcutaneous adipose tissue, 240 mg single dose, adipose tissue, 24 h): 212 nM
- concentration at 10 h (subcutaneous adipose tissue, 360 mg single dose, adipose tissue): 857 nM
- concentration at 24 h (subcutaneous adipose tissue, 360 mg single dose, adipose tissue, 24 h): 307 nM
